Experimental findings from PMC11184554, “Nature-Inspired Gallinamides Are Potent Antischistosomal Agents: Inhibition of the Cathepsin B1 Protease Target and Binding Mode Analysis” (ACS Infectious Diseases, 2024) are described below.

Molecules are shown by their SMILES.

Experiment [1] relates to S. mansoni newly transformed schistosomula (NTS). As to the kind of experiment: Phenotypic screen with newly transformed schistosomula (NTS). The experiment is classed as cell-based. On the procedure: The same 19 gallinamides were screened for bioactivity against S. mansoni newly transformed schistosomula (NTS), the postinvasive parasite stage that feeds on host blood.[40] In this primary assay, the NTS were exposed to 1 and 10 μM compounds for 3 days, and the resulting phenotypic responses were graded from 0 through 4, i.e., the least to the most severe (Table 2 and Table S1). […] The effects were more pronounced after 72 h, and when the higher, 10 μM, compound concentration was used (Table S1). […] Also, compared to gallinamide A and its analogs, 3 has an additional N-terminal N-acetamide modification that further reduces bioactivity (Table 2).
Phenotypic screens employed S. mansoni newly transformed schistosomula (NTS) and adults and were carried out as described previously.[18]−[20],[42] NTS were prepared by mechanically transforming infective larvae (cercariae).[40],[42] NTS (200–300 parasites) were incubated in flat-bottomed 96-well plates in 200 μL of Basch Medium 169 containing 5% (v/v) FBS, 100 U mL^–1 penicillin and 100 μg mL^–1 streptomycin (complete Basch medium)[75] at 5% CO2 and 37 °C.[76],[77] Inhibitors were added at final concentrations of 1 and 10 μM, and changes in phenotypes were observed under an inverted microscope every 24 h for up to 72 h.
A constrained nomenclature of “descriptors”[39],[42] was used to record the multiple and dynamic changes in movement, shape, and translucence that the schistosome parasite is capable of (Table S1 for NTS and Table S3 for adults). These descriptors were then converted into an ordinal “severity score” system ranging from 0 (no effect) to 4 (maximum effect), which allows for the relative comparison of compound effects.

For the next experiment, the system named is recombinant SmCB1. As to the kind of experiment: Kinetic inhibition assay with recombinant SmCB1 (k2nd). The conditions noted are these: for decrease in inhibitory potency vs gallinamide A / decrease in inhibition potency vs 8: ratio of k2nd values; for SmCB1 inhibition k2nd: second-order rate constant (kinact/Ki), substrate Cbz–Phe–Arg–AMC, pH 5.5, 37 °C, mean ± SE; for decrease in inhibition potency vs 8: range over the compounds named. It is filed as biochemical, S. mansoni. As to the method:
Gallinamide A and a series of its 18 derivatives were evaluated in vitro as inhibitors of SmCB1 to explore the binding specificities of the subsites in the enzyme’s active site. The gallinamide A inhibitor scaffold can be defined by positions P4 through P1′ (Schechter and Berger nomenclature[37]), which were assigned according to the binding mode analysis (see the crystallographic section below). The substituents R4, R1, and R1′ introduced on the scaffold (Table 2) are numbered according to the respective positions P4, P1, and P1′. The compounds’ second-order rate constants (k2nd) were determined using a kinetic inhibition assay with recombinant SmCB1 and the substrate, Cbz–Phe–Arg–AMC.
Inhibition measurements were performed in duplicate in 96-well microplates (100 μL assay volume) at 37 °C. SmCB1 (40 pM) was added to a mixture of the fluorogenic substrate Cbz–Phe–Arg–AMC (25 μM) and an inhibitor (0–100 μM) in 0.1 M sodium acetate, pH 5.5, containing 2.5 mM dithiothreitol and 0.01% (w/v) BRIJ 35. Substrate hydrolysis was monitored in an Infinite M1000 microplate reader (Tecan) at excitation and emission wavelengths of 360 and 465 nm, respectively, for up to 150 min. An observed first-order rate constant, kobs, was calculated at each inhibitor concentration by fitting the progress curve to the equation P = vi/kobs(1 – exp(−kobst)) + d where P is the product formation, t is the reaction time, vi is the initial velocity, and d is the offset. […] The second-order rate constant, k2nd, (and SE value) was determined by fitting the linear equation kobs = (k2nd[I])/(1 + [S]/Km), where [S] is the substrate concentration, [I] is the inhibitor concentration, and KM is the Michaelis–Menten constant. The KM value determined for SmCB1 was 25 μM. […] To determine IC50 values, SmCB1 (40 pM) was preincubated with the inhibitor (0–100 μM) for 30 min under assay conditions as described above, followed by the addition of the fluorogenic substrate Cbz–Phe–Arg–AMC (20 μM). Substrate hydrolysis was monitored for 30 min in a microplate reader as described above. The IC50 values were determined by nonlinear regression using GraFit software (Erithacus Software).

[2] abbreviates: 1 μM compound, 24 h, scale 0 (no effect) to 4 (most severe).
Where [3] appears, read: 1 μM compound, 48 h, scale 0 to 4.
Where [4] appears, read: 1 μM compound, 72 h, scale 0 to 4.
Setting [5] is: 10 µM compound, 24 h, scale 0 to 4.
Setting [6] is: 10 µM compound, 48 h, scale 0 to 4.
Setting [7] is: 10 µM compound, 72 h, scale 0 to 4.
Setting [8] is: Phe in R1′ changed from S to R configuration.

`COC1=CC(=O)N(C(=O)/C=C/[C@H](C)NC(=O)[C@H](CC(C)C)NC(=O)[C@H](CC(C)C)OC(=O)[C@H](C(C)C)N(C)C)[C@H]1C` [compound 2]: the schistosomula severity score in experiment [1] (setting [2]) was found to be 0; in experiment [1] (setting [3]) it was 1; in experiment [1] (setting [4]), 4; in experiment [1] (setting [5]), 4; in experiment [1] (setting [6]) it was 4; in experiment [1] (setting [7]), 4. Besides, the “decrease in inhibitory potency vs gallinamide A” value (“decrease in inhibitory potency” below) with recombinant SmCB1 is given as 2 fold. Besides, the “SmCB1 inhibition k2nd” value in the experiment with recombinant SmCB1 stood at 3334 ± 559 M^–1·s^–1.

Regarding `CCC(C)C(NC(C)=O)C(=O)NC(CC(C)C)C(=O)NC(CC(C)C)C(=O)NC(C)C=CC(=O)N1C(=O)C=C(OC)C1C` (stereo not drawn) [compound 3], the schistosomula severity score in experiment [1] (setting [2]) worked out at 0; in experiment [1] (setting [3]), 0; in experiment [1] (setting [4]), 2; in experiment [1] (setting [5]), 0; in experiment [1] (setting [6]) it was 2; in experiment [1] (setting [7]) it was 2. Besides, the schistosomula phenotype descriptors entry in experiment [1] (1 µM compound, 72 h) is recorded as “Dark, R”; in experiment [1] (10 µM compound, 48 h), “Dark, R”; in experiment [1] (10 µM compound, 72 h) it was “Dark, R”. In the experiment on recombinant SmCB1, the “decrease in inhibitory potency” value was 2.3 fold. Moreover, the “SmCB1 inhibition k2nd” value with recombinant SmCB1 was determined as 2902 ± 172 M^–1·s^–1.

`CCC(C)C(C(=O)NC(CC(C)C)C(=O)NC(CC(C)C)C(=O)NC(C)C=CC(=O)N1C(=O)C=C(OC)C1C)N(C)C` (stereo not drawn) [compound 4]: the schistosomula severity score was found to be 0 in experiment [1] (setting [2]); 0 in experiment [1] (setting [3]); 4 in experiment [1] (setting [4]); 1 in experiment [1] (setting [5]); 4 in experiment [1] (setting [6]); 4 in experiment [1] (setting [7]). Further, in the experiment with recombinant SmCB1, the “decrease in inhibitory potency” value is recorded as 2.3 fold. Moreover, in the experiment on recombinant SmCB1, the “SmCB1 inhibition k2nd” value was 2894 ± 113 M^–1·s^–1.

Consider `C#CCCCCOC1=CC(=O)N(C(=O)C=CC(C)NC(=O)C(CC(C)C)NC(=O)C(CC(C)C)OC(=O)C(C(C)CC)N(C)C)C1C` (stereo not drawn) [compound 5], for which the schistosomula severity score in experiment [1] (setting [2]) was 0; in experiment [1] (setting [3]), 4; in experiment [1] (setting [4]) it was 4; in experiment [1] (setting [5]) it was 1; in experiment [1] (setting [6]), 4; in experiment [1] (setting [7]) it was 4. Also, the “decrease in inhibitory potency” value with recombinant SmCB1 was 2.4 fold. Moreover, in the experiment on recombinant SmCB1, the “SmCB1 inhibition k2nd” value was found to be 2792 ± 360 M^–1·s^–1.

As to `CCC(C)C(C(=O)OC(CC(C)C)C(=O)NC(CC(C)C)C(=O)NC(C=CC(=O)N1C(=O)C=C(OC)C1Cc1ccccc1)Cc1ccccc1)N(C)C` (stereo not drawn) [compound 7], the schistosomula severity score was 0 in experiment [1] (setting [2]); 3 in experiment [1] (setting [3]); 4 in experiment [1] (setting [4]); 1 in experiment [1] (setting [5]); 4 in experiment [1] (setting [6]); 4 in experiment [1] (setting [7]). Moreover, the schistosomula phenotype descriptors result in experiment [1] (1 µM compound, 48 h) is given as “Dark, R, S”. Further, in the experiment on recombinant SmCB1 (setting [8]), the “improvement of inhibition vs 14” value amounted to 17 fold. In addition, the “SmCB1 inhibition k2nd” value in the experiment with recombinant SmCB1 was 942 ± 50 M^–1·s^–1.

With `CCC(C)C(C(=O)OC(CC(C)C)C(=O)NC(CC(C)C)C(=O)NC(C=CC(=O)N1C(=O)C=C(OC)C1C)Cc1ccccc1)N(C)C` (stereo not drawn) [compound 8], the schistosomula severity score in experiment [1] (setting [2]) is 1; in experiment [1] (setting [3]) it was 4; in experiment [1] (setting [4]), 4; in experiment [1] (setting [5]), 3; in experiment [1] (setting [6]), 4; in experiment [1] (setting [7]) it was 4. In addition, the schistosomula phenotype descriptors entry in experiment [1] (10 µM compound, 24 h) is given as “Dark, R, S”. For the same molecule, the “decrease in inhibitory potency” value with recombinant SmCB1 was 7.5 fold. For the same molecule, in the experiment on recombinant SmCB1, the “SmCB1 inhibition k2nd” value turned out to be 887 ± 46 M^–1·s^–1.

As for `CCC(C)C(C(=O)OC(CC(C)C)C(=O)NC(CC(C)C)C(=O)NC(C=CC(=O)N1C(=O)C=C(OC)C1CC(C)C)Cc1ccccc1)N(C)C` (stereo not drawn) [compound 10], the schistosomula severity score is given as 0 in experiment [1] (setting [2]); 2 in experiment [1] (setting [3]); 4 in experiment [1] (setting [4]); 0 in experiment [1] (setting [5]); 4 in experiment [1] (setting [6]); 4 in experiment [1] (setting [7]). The schistosomula phenotype descriptors entry in experiment [1] (1 µM compound, 48 h) was “Dark, R”. Besides, the “SmCB1 inhibition k2nd” value in the experiment on recombinant SmCB1 came to 537 ± 48 M^–1·s^–1.

Turning to `COC1=CC(=O)N(C(=O)/C=C/[C@H](Cc2ccccc2)NC(=O)[C@H](CC(C)C)NC(=O)[C@H](CC(C)C)OC(=O)[C@H](C(C)C)N(C)C)[C@H]1CC(C)C` [compound 11], the schistosomula severity score in experiment [1] (setting [2]) is recorded as 1; in experiment [1] (setting [3]), 3; in experiment [1] (setting [4]) it was 4; in experiment [1] (setting [5]), 1; in experiment [1] (setting [6]) it was 4; in experiment [1] (setting [7]), 4. Also, in experiment [1] (1 µM compound, 48 h), the schistosomula phenotype descriptors entry is listed as “Dark, R, S”. In addition, the “SmCB1 inhibition k2nd” value in the experiment with recombinant SmCB1 came out at 295 ± 17 M^–1·s^–1.

In the case of `COC1=CC(=O)N(C(=O)/C=C/[C@H](Cc2ccccc2)NC(=O)[C@H](CC(C)C)NC(=O)[C@H](CC(C)C)OC(=O)[C@H](Cc2ccccc2)N(C)C)[C@H]1C` [compound 12], the schistosomula severity score is listed as 1 in experiment [1] (setting [2]); 2 in experiment [1] (setting [3]); 4 in experiment [1] (setting [4]); 3 in experiment [1] (setting [5]); 4 in experiment [1] (setting [6]); 4 in experiment [1] (setting [7]). Also, the schistosomula phenotype descriptors result is listed as “Dark, R” in experiment [1] (1 µM compound, 48 h) and “Dark, R, S” in experiment [1] (10 µM compound, 24 h). Besides, the “decrease in inhibition potency vs 8” value in the experiment on recombinant SmCB1 is 4.2–49 fold. In the experiment on recombinant SmCB1, the “SmCB1 inhibition k2nd” value worked out at 212 ± 30 M^–1·s^–1.

For `COC1=CC(=O)N(C(=O)/C=C/[C@H](Cc2ccccc2)NC(=O)[C@H](CC(C)C)NC(=O)[C@H](CC(C)C)OC(=O)[C@H](Cc2ccccc2)N(C)C)[C@@H]1Cc1ccccc1` [compound 13], the schistosomula severity score in experiment [1] (setting [2]) is on record as 0; in experiment [1] (setting [3]), 2; in experiment [1] (setting [4]) it was 4; in experiment [1] (setting [5]), 2; in experiment [1] (setting [6]), 4; in experiment [1] (setting [7]) it was 4. The schistosomula phenotype descriptors result in experiment [1] (10 µM compound, 24 h) is “Dark, R”. Also, in the experiment with recombinant SmCB1 (setting [8]), the “improvement of inhibition vs 17” value amounted to 6 fold. Besides, the “SmCB1 inhibition k2nd” value in the experiment with recombinant SmCB1 stood at 109 ± 2 M^–1·s^–1.

`CCC(C)C(C(=O)OC(CC(C)C)C(=O)NC(CC(C)C)C(=O)NC(C=CC(=O)N1C(=O)C=C(OC)C1Cc1ccccc1)Cc1ccccc1)N(C)C` (stereo not drawn) [compound 14]: the schistosomula severity score was 0 in experiment [1] (setting [2]); 3 in experiment [1] (setting [3]); 4 in experiment [1] (setting [4]); 1 in experiment [1] (setting [5]); 4 in experiment [1] (setting [6]); 4 in experiment [1] (setting [7]). The “decrease in inhibition potency vs 8” value in the experiment with recombinant SmCB1 was 4.2–49 fold. Besides, the “SmCB1 inhibition k2nd” value in the experiment on recombinant SmCB1 is on record as 54.5 ± 1.3 M^–1·s^–1.
